From US20150141411A1, “SUBSTITUTED 3,4-DIHYDRO-2H-PYRIDO[1,2-A]PYRAZINE-1,6-DIONE DERIVATIVES USEFUL FOR THE TREATMENT OF (INTER ALIA) ALZHEIMER'S DISEASE” (Janssen Pharmaceuticals, Inc., priority 2012, published 2015)

Assays:
Aβ42 = test: In vivo efficacy: brain soluble Aβ42 in non-transgenic rodents (MSD electrochemiluminescence multiplex); design: species or system mouse; settings: Mus musculus, po, 4 h, dose 30 mg/kg oral dosing, brain soluble fraction, animals sacrificed after 4 h, untreated animals (Ctrl) set at 100, read-out: Aβ42 (% vs Ctrl)_Mean
Source text: (§1) To determine whether acute administration of an Aβ42 lowering agent would reduce Aβ42 levels in vivo, non-transgenic rodents, e.g. mice or rats were used. Animals treated with the Aβ42 lowering agent were examined and compared to those untreated or treated with vehicle and brain levels of soluble Aβ42, Aβ40, Aβ38, and Aβ37 were quantitated by Meso Scale Discovery's (MSD) electrochemiluminescence detection technology. Treatment periods varied from hours (h) to days and were adjusted based on the results of the Aβ42 lowering once a time course of onset of effect could be established.
(§2) A typical protocol for measuring Aβ42 lowering in vivo is shown but it is only one of many variations that could be used to optimize the levels of detectable Aβ. For example, Aβ42 lowering compounds were formulated in 20% of Captisol® (a sulfo-butyl ether of β-cyclodextrin) in water or 20% hydroxypropyl βcyclodextrin. The Aβ42 lowering agents were administered as a single oral dose or by any acceptable route of administration to overnight fasted animals. After 4 h, the animals were sacrificed and Aβ42 levels were analysed.
(§3) Blood was collected by decapitation and exsanguinations in EDTA-treated collection tubes. Blood was centrifuged at 1900 g for 10 minutes (min) at 4° C. and the plasma recovered and flash frozen for later analysis. The brain was removed from the cranium and hindbrain. The cerebellum was removed and the left and right hemisphere were separated. The left hemisphere was stored at −18° C. for quantitative analysis of test compound levels. The right hemisphere was rinsed with phosphate-buffered saline (PBS) buffer and immediately frozen on dry ice and stored at −80° C. until homogenization for biochemical assays.
(§4) Mouse brains from non-transgenic animals were resuspended in 8 volumes of 0.4% DEA (diethylamine)/50 mM NaCl containing protease inhibitors (Roche-11873580001 or 04693159001) per gram of tissue, e.g. for 0.158 g brain, add 1.264 ml of 0.4% DEA. All samples were homogenized in the FastPrep-24 system (MP Biomedicals) using lysing matrix D (MPBio #6913-100) at 6 m/s for 20 seconds. Homogenates were centrifuged at 20800×g for 5 min and supernatants collected. Supernatants were centrifuged at 221.300×g for 50 min. The resulting high speed supernatants were then transferred to fresh eppendorf tubes. Nine parts of supernatant were neutralized with 1 part 0.5 M Tris-HCl pH 6.8 and used to quantify Aβ.
(§5) To quantify the amount of Aβ42, Aβ40, Aβ38, and Aβ37 in the soluble fraction of the brain homogenates, simultaneous specific detection of Aβ42, Aβ40, Aβ38, and Aβ37 was performed using MSD's electro-chemiluminescence multiplex detection technology. In this assay purified monoclonal antibodies specific for Abeta37 (JRD/Aβ37/3), Abeta38 (J&JPRD/Aβ38/5), Abeta40 (JRF/cAβ40/28), and Abeta42 (JRF/cAβ42/26) were coated on MSD 4-plex plates. Briefly, the standards (a dilution of synthetic Aβ42, Aβ40, Aβ38, and Aβ37) were prepared in 1.5 ml Eppendorf tube in Ultraculture, with final concentrations ranging from 10000 to 0.3 pg/m. The samples and standards were co-incubated with Sulfo-tag labelled JRF/rAβ/2 antibody to the N-terminus of Aβ as detector antibody. 50 μl of conjugate/sample or conjugate/standards mixtures were then added to the antibody-coated plate. The plate was allowed to incubate overnight at 4° C. in order to allow formation of the antibody-amyloid complex. Following this incubation and subsequent wash steps the assay was finished by adding read buffer according to the manufacturer's instructions (Meso Scale Discovery, Gaitherburg, Md.).
(§6) The SULFO-TAG emits light upon electrochemical stimulation initiated at the electrode. MSD Sector instrument SI6000 was used for signal read-out.
In this model a Aβ42 lowering compared to untreated animals would be advantageous, in particular a Aβ42 lowering with at least 10%, more in particular a Aβ42 lowering with at least 20%. […]

Aβ38 = test: In vivo efficacy: brain soluble Aβ38 in non-transgenic rodents (MSD electrochemiluminescence multiplex); design: species or system mouse; settings: Mus musculus, po, 4 h, dose 30 mg/kg oral dosing, brain soluble fraction, animals sacrificed after 4 h, untreated animals (Ctrl) set at 100, read-out: Aβ38 (% vs Ctrl)_Mean
Source text: as §1, with “Aβ38 increasing agents” for “Aβ42 lowering agent”, “increase Aβ38” for “reduce Aβ42”, “MSD” for “Meso Scale Discovery's (MSD)”, “Aβ38 increase” for “Aβ42 lowering”
as §2, with “measuring Aβ38 increase” for “measuring Aβ42 lowering”, “example, Aβ38 increasing agents” for “example, Aβ42 lowering compounds”, “(a sulfobutyl” for “(a sulfo-butyl”, “The Aβ38 increasing” for “The Aβ42 lowering”, “and Aβ38” for “and Aβ42”
as §3, §4
as §5, with “(MesoScale” for “(Meso Scale”
as §6
In this model a Aβ38 increase compared to untreated animals would be advantageous, in particular a Aβ38 increase with at least 10%, more in particular a Aβ38 increase with at least 20%. […]

SMILES | response vs control in vivo at 30 mg/kg (Aβ42) [%] | response vs control in vivo at 30 mg/kg (Aβ38) [%]
Cc1cn(-c2ccc3n(c2=O)C[C@@H](C)N(Cc2cc(OCC(F)(F)F)cc(C(F)(F)F)c2)C3=O)cn1 [compound 166] | 64 | 127
Cc1cn(-c2ccc3n(c2=O)C[C@@H](C)N(Cc2c[nH]c4cc(F)c(Cl)cc24)C3=O)cn1 [compound 195] | 105 | 123
